Several values for one entry are separate records, joined by “and”; a condition that tells them apart may be missing. Equal values may be shown once. Read-outs that look alike come from different tables or passages of the source.
Assays:
[1] = target: T1, CYP3A4 (Homo sapiens, UniProt P08684); assay: Incubation with CYP450 recombinant enzymes (Bactosomes) and NADPH; type: in vitro ADME; details: 1 µM
T1 construct: purchased

[2] = set-up: method as in PMID 21738803; details: liver sub-cellular fractions from rodents, dogs, cynomolgus monkeys, and humans; cited from earlier work
[3] = test system: MDCK-MDR1 cell monolayer; details: cited from earlier work
[4] = test system: T.b. gambiense; set-up: method as in PMID 21738803; details: oral 5–25 mg/kg/day; acute and chronic infection; cited from earlier work
[5] = Urinary excretion / renal clearance of acoziborole and SCYX-3109 by LC-MS/MS; type: in vivo; details: male, human, urine and plasma; CumAe0–240h/AUC0–240h; mean ± SD; 960 mg single oral dose of acoziborole; read-out: renal clearance CLr0–240h (converted)
Experimental: Urine samples were collected before IP administration (single urine void) and then during intervals of 0–6, 6–12, 12–24, 24–48, 48–72, 72–96, 96–120, 120–168, 168–192, 192–216, and 216–240 h post-dose and for the additional 48-h collection period starting on Day 15 post-dose, that is, 336–384 h. Samples were acidified with citric acid to avoid acoziborole degradation and were refrigerated until the end of the block collection periods. The total weight and volume of urine were then recorded. At the end of each collection period, two aliquots of acidified urine (20 mL) were taken from the sample and stored in polypropylene tubes at −20°C until further analysis for total radioactivity. Two aliquots of 1 mL acidified urine were collected into tubes containing bovine serum albumin in aqueous solution (to avoid non-specific adsorption of acoziborole) and NaCl for acoziborole and SCYX-3109 assays. […]
SGS Belgium (Wavre, Belgium) performed the analysis to determine acoziborole and SCYX-3109 concentrations, using validated bioanalytical assays with liquid chromatography with tandem mass spectrometry (LC-MS/MS) with a Supelco Ascentis Express C8, 2.7 µm, 50 × 2.1 mm I.D. separation column. In plasma, the lower limit of quantification (LLOQ) was 25 ng/mL for acoziborole and 10 ng/mL for SCYX-3109. […]

[6] = Distribution study of [14C]-acoziborole in Sprague-Dawley rats; type: in vivo; details: 10 mg/kg (200 µCi/kg)
[7] = set-up: method as in PMID 21738803; details: NHPs, cited from earlier work
[8] = Total radioactivity in blood and plasma by accelerator mass spectrometry, phase I mass balance study; type: in vivo, human; details: 960 mg single oral dose
Experimental: Venous blood samples were collected via an indwelling cannula or by venepuncture. A 12 mL sample was taken into heparinized glass tube and chilled on ice immediately before IP administration and 3 mL samples were taken at 1, 4, 9, 12, 24, 48, 72, 96, 120, 144, 168, and 240 h and on Days 15, 31, 59, 89, and 119 after IP administration. The first 0.5 mL of blood withdrawn via cannula was discarded. One aliquot of heparinized whole blood (1 mL) per time point was stored at or below −20°C for total radioactivity analysis. The remaining blood was centrifuged, and the harvested plasma was stored at approximately −20°C for bioanalysis or transferred (exactly 1 mL) into polypropylene tubes pre-filled with 5 µL formic acid. One plasma sample (0.5 mL) was used for metabolite profiling while another (0.5 mL) was used for parent drug and SCYX-3109 metabolite analysis. The remaining plasma was used for total radioactivity analysis.
TNO (Leiden, the Netherlands) performed the analysis of total radioactivity and the metabolite profiling and identification. All blood, plasma, urine, and fecal homogenate samples were analyzed for total radioactivity by accelerator mass spectrometry (AMS). AMS analysis was performed on a 1 MV multi-element AMS, model 4110 Bo, high voltage engineering (software: AMS 155), using Australian National University (ANU) sucrose-8542 (C12H22O11) with a certified ^14C/^12C isotope ratio ([10]) as the system suitability test sample and [^14C]-paracetamol as an AMS quality check sample.
For each (diluted) sample, 5 µL blood, 5 µL plasma, 15 µL urine, or 30 mg fecal homogenate prepared in 1% CMC solution (1% CMC solution:feces ratio of 4:1) were transferred to tin foil cups. The samples were dried under a stream of nitrogen and subsequently placed in the elemental analyzer (EA, Vario Micro, Elementar, Germany), which acts as an autosampler and combustion device for the AMS. Single samples of blood, plasma, and urine were analyzed. Fecal homogenates were analyzed in triplicate, and the averaged value was reported. Total radioactivity in plasma and blood was expressed as ng equivalents (Eq) of acoziborole/mL. The LLOQ was 47.3 ngEq/mL in plasma (1.51 mBq/mL), 165.4 ngEq/mL in blood (5.28 mBq/mL), 33.8 ngEq/mL in urine (1.08 mBq/mL), and 87.1 ngEq/mL in feces (2.78 mBq/mL).
Blood-to-plasma ratio was calculated based on Cmax and AUC values. For total radioactivity excreted in urine, feces, and both combined, the following parameters were calculated: total amount of total radioactivity excreted over the time interval between t1 and t2 (Aet1−t2), Aet1−t2 expressed as a percentage of the radioactive dose administered (%Aet1−t2), CumAe, and Cum%Ae. For CumAe calculation, the recovery of total radioactivity during WinNonlin time intervals in which urine and feces were not collected was estimated using the area under the excretion rate-time curve from the end of the preceding collection interval to the start of the subsequent collection interval.

[9] = test system: gambiense HAT infection; set-up: method as in PMID 36460027; details: single oral 960 mg, fasting, cited from earlier work
[10] = set-up: method as in PMID 21738803; details: oral, mice; cited from earlier work
[11] = set-up: method as in PMID 21738803; details: rats; cited from earlier work
[12] = N = 6, mean ± SD, listed as [^14C]-acoziborole

T1 sequence (P08684 whole entry): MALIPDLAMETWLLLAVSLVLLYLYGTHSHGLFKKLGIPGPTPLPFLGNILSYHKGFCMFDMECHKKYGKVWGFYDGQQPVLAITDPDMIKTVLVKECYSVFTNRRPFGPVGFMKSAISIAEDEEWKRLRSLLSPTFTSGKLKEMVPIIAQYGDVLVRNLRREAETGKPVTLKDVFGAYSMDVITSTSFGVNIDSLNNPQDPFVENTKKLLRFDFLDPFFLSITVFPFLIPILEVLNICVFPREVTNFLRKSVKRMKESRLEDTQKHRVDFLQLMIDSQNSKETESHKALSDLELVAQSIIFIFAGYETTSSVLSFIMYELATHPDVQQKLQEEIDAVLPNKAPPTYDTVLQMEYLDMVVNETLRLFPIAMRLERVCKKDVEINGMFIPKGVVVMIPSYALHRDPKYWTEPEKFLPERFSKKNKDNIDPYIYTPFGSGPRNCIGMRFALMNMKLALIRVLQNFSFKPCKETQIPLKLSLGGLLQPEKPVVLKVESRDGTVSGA

CC1(C)OB(O)c2cc(NC(=O)c3ccc(F)cc3C(F)(F)F)ccc21 [acoziborole]
metabolism by recombinant CYP3A4 [1]: metabolized by | metabolic stability [2]: metabolically stable | apparent permeability [3]: 77.6 ×10⁻⁶ cm/s | effect on survival of infected mice [4]: significantly prolong survival | outcome of oral treatment in infected mice [4]: curative | CL renal [5]: 0.0333 mL/min | radioactivity collected in feces during 7 days, share of total radioactivity ([6]; female rats): > 73% | radioactivity in combined feces and urine during 7 days, share of total radioactivity ([6]; female rats): > 86% | radioactivity collected in feces during 7 days, share of total radioactivity ([6]; male rats): over 66% | radioactivity in combined feces and urine during 7 days, share of total radioactivity ([6]; male rats): over 85% | concentration in the CSF as percentage of the plasma concentration ([7]; at each time point): approximately 5% | absolute bioavailability ([7]; oral): 89% | mean whole blood to plasma total radioactivity ratios (Cmax and AUC0–240h), interpretation [8]: no affinity for blood cells | median tmax, total radioactivity in plasma ([8]; N = 6): 48 h | AUC0–240h, total radioactivity, whole blood ([8]; N = 6, mean ± SD): 2,250.737 ± 182.816 µg-eq*h/mL | AUC0–t, total radioactivity, plasma ([8]; N = 6, mean ± SD): 5,403.286 ± 1,561.755 µg-eq*h/mL | AUC0–t, total radioactivity, whole blood ([8]; N = 6, mean ± SD): 3,556.202 ± 3,236.208 µg-eq*h/mL | AUC0–∞, total radioactivity, plasma ([8]; N = 6, mean ± SD): 5,785.324 ± 1,105.726 µg-eq*h/mL | AUC0–∞, total radioactivity, whole blood ([8]; N = 6, mean ± SD): 5,382.336 ± 2,473.408 µg-eq*h/mL | tmax, total radioactivity, plasma ([8]; N = 6, mean ± SD): 56.0 ± 12.4 h | tmax, total radioactivity, whole blood ([8]; N = 6, mean ± SD): 68.1 ± 9.9 h | AUC0–240h, total radioactivity, plasma [8, 12]: 2,371.786 ± 255.572 µg-eq*h/mL | t1/2, total radioactivity, plasma [8, 12]: 278.3 h and 278 h and 278.3 ± 47.4 h | t1/2, total radioactivity, whole blood [8, 12]: 239.2 h and 239.2 ± 65.7 h | Cmax, total radioactivity, whole blood ([8]; healthy males, N = 6, mean ± SD): 12.052 ± 1.129 µg-eq/mL | Cmax, total radioactivity, plasma ([8]; healthy males, N = 6, mean ± SD, listed as [^14C]-acoziborole): 13.13 µg-eq/mL and 13.130 ± 1.776 µg-eq/mL | mean whole blood to plasma total radioactivity ratios (Cmax and AUC0–240h), interpretation ([8]; listed as [^14C]-acoziborole): equivalent distribution between blood cells and plasma | safety and tolerability profile ([9]; 208 patients): acceptable safety and tolerability profile | treatment success rate at 18 months ([9]; 159 out of 162 patients, evaluable population): 98.1% | treatment success rate at 18 months ([9]; late-stage patients, modified intention-to-treat population): 95.2% | absolute bioavailability [10]: 55% | brain to plasma AUC0–24h ratio [11]: 44%
